Structures can show the parent of a compound that is named as a salt. Where two headings read alike, the source gives them in different places.
Columns and labels:
[1] = Peroutka et al.; Saxena et al.; Hamel et al.; cited from earlier work
[2] = early clinical trials; cited from earlier work
[3] = Bielenberg et al., Stroke Supplement IV, 21 (1990); cited from earlier work
[4] = Eur. J. Pharmacol. 144, 223 (1987); 158, 53 (1988); cited from earlier work
[5] = Eur. J. Pharmacol. 180, 339 (1990); 182, 63 (1990); cited from earlier work
[6] = Eide, Neuropharm. 31, 541 (1992); cited from earlier work
5HT1A receptor = target: T1, 5HT1A receptor (Rattus norvegicus, UniProt P19327); test: 5HT1A receptor binding affinity (procedure of Gozlan et al.)
T1 sequence (P19327 1-422): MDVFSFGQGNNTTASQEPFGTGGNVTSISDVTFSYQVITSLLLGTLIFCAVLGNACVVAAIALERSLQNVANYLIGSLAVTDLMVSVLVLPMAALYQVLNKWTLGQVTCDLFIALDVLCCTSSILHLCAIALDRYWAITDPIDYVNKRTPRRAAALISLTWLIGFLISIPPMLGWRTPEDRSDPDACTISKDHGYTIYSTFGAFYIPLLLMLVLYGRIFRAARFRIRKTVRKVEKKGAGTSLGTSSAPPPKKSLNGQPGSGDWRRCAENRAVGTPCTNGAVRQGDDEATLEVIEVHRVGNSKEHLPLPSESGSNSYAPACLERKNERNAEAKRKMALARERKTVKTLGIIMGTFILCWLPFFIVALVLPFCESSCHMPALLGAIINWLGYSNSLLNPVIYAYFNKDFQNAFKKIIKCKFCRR
Experimental: In the following examples, the compounds binding affinity for both the 5HT1A receptor and 5HT1D receptors is reported. The compounds affinity for the 5HT1D site was determined by the binding procedure of Peroutka et al as reported in European Journal of Pharmacology, Vol. 163 at pages 133-166 (1989). The compounds affinity for the 5HT1A receptor was determined by the procedure of Gozlan et al., as reported in Nature, Volume 305, at pages 140-142 (1983). Where multiple determinations of the binding affinity have been performed, the average is given followed by the number of determinations in parentheses. Also, the PA2 value for the saphenous vein preparation as described in this application is given, followed by the intrinsic (agonist) activity in parentheses, expressed as a percentage. [drawing 10] […]

5HT1D receptor = target: T2, 5HT1D receptor (Bos taurus, UniProt F1MGM3); test: 5HT1D receptor binding affinity (procedure of Peroutka et al.)
T2 construct: from tissue
T2 sequence (F1MGM3 1-403): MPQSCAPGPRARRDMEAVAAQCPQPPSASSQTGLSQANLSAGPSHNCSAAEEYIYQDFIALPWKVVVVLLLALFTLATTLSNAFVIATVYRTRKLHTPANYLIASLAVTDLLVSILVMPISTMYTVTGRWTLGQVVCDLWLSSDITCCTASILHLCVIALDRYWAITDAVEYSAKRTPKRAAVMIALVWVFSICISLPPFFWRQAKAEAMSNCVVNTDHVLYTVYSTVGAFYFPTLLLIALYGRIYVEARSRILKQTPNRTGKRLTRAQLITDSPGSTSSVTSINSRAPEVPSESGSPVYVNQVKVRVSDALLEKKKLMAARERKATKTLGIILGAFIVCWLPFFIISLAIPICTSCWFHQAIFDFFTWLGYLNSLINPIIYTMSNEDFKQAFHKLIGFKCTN
Experimental: The compounds affinity for the 5HT1D site was determined by the binding procedure of Peroutka et al as reported in European Journal of Pharmacology, Vol. 163 at pages 133-166 (1989). […] Where multiple determinations of the binding affinity have been performed, the average is given followed by the number of determinations in parentheses.

5-HT1D receptors = 5-HT1D receptors (Canis lupus familiaris, UniProt P79250); design: species or system dog (canine)
5-HT1D receptors, sequence (P79250 whole entry): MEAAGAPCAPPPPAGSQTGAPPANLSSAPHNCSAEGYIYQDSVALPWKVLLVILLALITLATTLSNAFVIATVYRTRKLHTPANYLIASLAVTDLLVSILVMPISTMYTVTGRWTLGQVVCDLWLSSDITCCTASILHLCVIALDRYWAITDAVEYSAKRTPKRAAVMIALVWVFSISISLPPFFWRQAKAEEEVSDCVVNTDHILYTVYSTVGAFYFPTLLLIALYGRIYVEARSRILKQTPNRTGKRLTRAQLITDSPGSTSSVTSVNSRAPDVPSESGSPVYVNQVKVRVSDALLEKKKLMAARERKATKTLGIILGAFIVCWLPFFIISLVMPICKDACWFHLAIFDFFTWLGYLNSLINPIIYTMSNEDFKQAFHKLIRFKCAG
Experimental: In the following examples, the compounds binding affinity for both the 5HT1A receptor and 5HT1D receptors is reported. The compounds affinity for the 5HT1D site was determined by the binding procedure of Peroutka et al as reported in European Journal of Pharmacology, Vol. 163 at pages 133-166 (1989). The compounds affinity for the 5HT1A receptor was determined by the procedure of Gozlan et al., as reported in Nature, Volume 305, at pages 140-142 (1983). Where multiple determinations of the binding affinity have been performed, the average is given followed by the number of determinations in parentheses. Also, the PA2 value for the saphenous vein preparation as described in this application is given, followed by the intrinsic (agonist) activity in parentheses, expressed as a percentage. [drawing 10]
We have used canine saphenous vein for studying 5-HT1D receptors which is similar, although not totally identical, to human coronary 5-HT1D receptors (see Humphrey, P. P. A., Feniuk, W., Perren, M. J., Connor, H. E., Oxford, A. W., Coates, I. H. and Butina, D.: GR43175, a selective agonist for the 5-HT1 -like receptor in dog isolated saphenous vein, Br. J. Pharmacol. 94:1123-1132, 1988; Kaumann, A. J.: Human heart 5-HT receptors, Second international symposium on serotonin, from cell biology to pharmacology and therapeutics, Houston, Sep. 15-18, 1992).
Mongrel dogs weighing 12-18 kg were killed by an intravenous injection of an overdose of sodium pentobarbitol. Saphenous veins were isolated, removed, cleaned of surrounding connective tissue, and cut into helical strips in a dish containing Krebs-Henseleit solution with the following composition in mM: NaCl, 110.0; KCl, 4.8; CaCl2, 2.5; KH2 PO4, 1.2; EDTA(NaEDTA), 0.027; and was constantly bubbled with 95% O2 -5% CO2. Unless otherwise specified, the endothelium of the […] was removed by rubbing with a metal rod. The intactness or absence of functional endothelium was checked by the presence or absence of a relaxant effect of acetycholine (10^-5 M) in phenylephrine-contracted tissues (see Furchgott, R. F. and Zawadzki, J. V.: The obligatory role of endothelial cells in the relaxtion of arterial smooth muscle by acetycholine, Nature 288:373-376, 1980). Each muscle strip (3×30 mm) was set up in a tissue bath at 37° C. and loaded with 2 gram tension. Contractility of the tissues was measured isometrically with a Grass FT03 force-displacement transducer and recorded on a Strip chart recorder. The tissues were allowed to stabilize for 2 hours before the experiment was started, during which time they were washed repeatedly. Tissues were contracted with 3.162×10^-6 M phenylephrine and 40 mM KCl, which produced 60-70% of their maximum contractile responses, to condition the tissue. 5-HT dose response experiment was conducted. Test compounds were then incubated with the tissue before a second 5-HT dose response experiment was performed. Data are expressed as the pA2 value, the negative logarithm of the molar concentration of antagonist which produced a 2 fold shift in ED50 values of 5-HT dose response curves (see Van Rossum, J. M.: Cumulative dose-response curve: Technique for the making of dose-response curves in isolated organs and the evaluation of drug parameters, Arch. Int. Pharmacodyn. Ther. 143:299-330, 1963).

[7] = acetic acid writhing test (analgesic effect); format: in vivo; conditions: Mus musculus, sc, 0.5 h; mice, subcutaneous, 30 minutes before acetic acid i.p. (0.25% v/v, 0.4 ml)
Experimental: Eide, Neuropharm. 31, 541 (1992). […] One such model is the acetic acid writhing test. In this test, a group containing from 5-10 mice are administered the test compound subcutaneously. Thirty minutes after administration of the test compound, the mice are administered acetic acid intraperitoneally (0.25 % v/v, 0.4 ml). The mice are then observed for squirming and writhing. Analgesics block this squirming and writhing.

[8] = fear-potentiated startle test (anxiolytic activity); format: in vivo; conditions: rats
Description: Animals were trained and tested for tear-potentiated startle in a modification of the methods reported in Hitchcock and Davis (1991). Briefly, rats first were given a matching session consisting of 30 startle stimuli. […] A training session took place one to two days later in which the rats were given 10 paired trials consisting of a visual conditioned stimulus (a light) immediately followed by an unconditioned stimulus (footshock). The test session took place two days later. The product of Example No. 15 was administered s.c. in the flank and fifteen minutes later, the rats were given startle stimuli in the absence of the conditioned stimulus (baseline startle measurement; Noise-Alone trials) or in the presence of the conditioned stimulus (fear-potentiated startle measurement; Light-Noise trials). Fear-potentiated startle was defined as higher startle in the presence of the conditioned fear stimulus than in its absence.
Statistical analysis was done on the mean startle amplitudes on the Noise-Alone and Light-Noise trials, and the mean Difference scores (Light-Noise minus Noise-Alone means). One-way analysis of variance was run on the Difference scores and on the Noise-Alone scores. Multiple comparison test (Fisher PLSD) were used to compare each dose group to the vehicle control group.

[9] = system: dorsal raphe nucleus neurons; conditions: Vandermaelen et al.; cited from earlier work

Question: Which “antimigraine-like effects in animal models” value [1] does the source give for CNS(=O)(=O)Cc1ccc2[nH]cc(CCN(C)C)c2c1 [sumatriptan] here?
Answer: Its value is “produce antimigraine-like effects in animal models”.

Question: And the “termination of acute migraine attacks” value [2]?
Answer: The value was “terminate acute migraine attacks in early clinical trials”.

Question: Which “neuronal destruction in rodent models of stroke” value (“neuronal destruction” below) [3] does the source give for O=C1c2ccccc2S(=O)(=O)N1CCCCN1CCN(c2ncccn2)CC1 [ipsapirone] here?
Answer: Its value is “inhibited or decreased neuronal destruction”.

Question: Which “effect in rodent models for depression” value [4] does the source give for CCCN(CCC)C1CCc2cccc(O)c2C1 (stereo not drawn) [8-OH DPAT, 8-hydroxy-2-(di-N-propylamino) tetralin] here?
Answer: Its value is “effective in rodent models for depression”.

Question: And the “antihypertensive effect in rodent models” value [5]?
Answer: The value was “effective for the treatment of hypertension in rodent models”.

Question: And the analgesic effect [6]?
Answer: The analgesic effect was “effective as analgesics”.

Question: And the “neuronal destruction” value [3]?
Answer: The value was “inhibited or decreased neuronal destruction”.

Question: Which results are given for Cl.NC(=O)c1cc2c(N3CCN(CCc4ccccc4)CC3)cccc2s1 [Example 9, 4-[4-(2-phenylethyl)-1-piperazinyl]-benzo[b]thiophene-2-carboxamide monohydrochloride]?
Answer: IC50 (5HT1A receptor): 0.5 nM; IC50 (5HT1D receptor): 1.6 nM; Kb (5-HT1D receptors): 10.2 nM; ED50 [7]: 0.12 mg/kg

Question: For Cc1ccc(CCN2CCN(c3cccc4sc(C(N)=O)cc34)CC2)cc1 [Example 29, 4-[4-[2-(4-methylphenyl)ethyl]-1-perazinyl]-benzo[b]thiophene-2-carboxamide monohydrochloride], which IC50 (5HT1A receptor) is on record?
Answer: The IC50 was 1 nM.

Question: What about the IC50 (5HT1D receptor) of the same compound?
Answer: The IC50 was 3 nM.

Question: And the ED50 [7]?
Answer: Its ED50 is 0.03 mg/kg.

Question: For OCc1cc2c(N3CCN(CCCc4ccccc4)CC3)cccc2s1 [Example 15, 4-[4-(3,phenylpropyl)-1-piperazinyl]-benzo[b]thiophene-2-methanol monohydrochloride], which IC50 (5HT1A receptor; average of multiple determinations where number in parentheses is given, read-out: IC50 (5HT1A Binding Affinity)) is on record?
Answer: The IC50 was 1.8 nM.

Question: And the IC50 (5HT1D receptor; average of multiple determinations where number in parentheses is given, read-out: IC50 (5HT1D Binding Affinity))?
Answer: The IC50 was 23 nM.

Question: And the ED50 [7]?
Answer: The ED50 was 1.74 mg/kg.

Question: What about the “decrease of fear-potentiated startle” value ([8]; doses of 2.5, 20.0, and 40.0 mg/kg s.c., p<.05 vs vehicle, Fisher PLSD) of the same compound?
Answer: The value was “decreased fear-potentiated startle with statistically significant effects”.

Question: And the “anxiolytic activity in the fear-potentiated startle test” value ([8]; s.c., 15 minutes before test)?
Answer: The value was “significant anxiolytic activity”.

Question: What about the “baseline startle reflex (muscle relaxant activity)” value ([8]; s.c., Noise-Alone trials) of the same compound?
Answer: Its value is “did not decrease the baseline startle reflex”.

Question: What does the source list for Cl.NC(=O)c1cc2c(N3CCN(CCc4ccc(Cl)cc4)CC3)cccc2s1 [Example 21, 4-[4-[2-(4-chlorophenyl)ethyl]-1-piperazinyl]-benzo[b]thiophene-2-carboxamide monohydrochloride]?
Answer: IC50 (5HT1A receptor): 2 nM; IC50 (5HT1D receptor): 14 nM; ED50 [7]: 0.05 mg/kg

Question: Which “neuronal destruction” value [3] does the source give for CCCN(CCC)C1Cc2c[nH]c3ccc(OC)c(c23)C1.Cl (stereo not drawn) [Bay R 1531] here?
Answer: The value was “inhibited or decreased neuronal destruction”.

Question: With CC1(C)CC(=O)N(CCCCN2CCN(c3ncccn3)CC2)C(=O)C1 [gepirone] as the compound, how does the “neuronal destruction” value [3] read?
Answer: The value was “inhibited or decreased neuronal destruction”.

Question: Which IC50 (5HT1A receptor) does the source give for Cl.OCc1cc2c(N3CCN(CCc4ccccc4)CC3)cccc2s1 [Example 7, 4[4(2-phenylethyl)-1-piperazinyl]-benzo[b]thiophene-2-methanol monohydrochloride] here?
Answer: The IC50 was 0.6 nM.

Question: And the IC50 (5HT1D receptor)?
Answer: Its IC50 is 2.4 nM.

Question: What about the ED50 [7] of the same compound?
Answer: The ED50 was 0.61 mg/kg.

Question: With O=C1CC2(CCCC2)CC(=O)N1CCCCN1CCN(c2ncccn2)CC1 [buspirone] as the compound, how does the raphe cell firing [9] read?
Answer: Its raphe cell firing is “inhibit raphe cell firing”.

Question: Which “antihypertensive effect in rodent models” value [5] does the source give for O=C(NCCN1CCN(c2cccc3c2OC[C@H](CO)O3)CC1)c1ccc(F)cc1 [flesinoxan] here?
Answer: The value was “effective for the treatment of hypertension in rodent models”.

Source: patent publication US5436246A, “Serotonin receptor agents” (priority 1993, dated 1995)
